Test results reported in ChEMBL document CHEMBL1132333, “Synthesis and enantiomeric separation of 2-phthalimidino-glutaric acid analogues: potent inhibitors of tumor metastasis” (1999).

System: Mus musculus
Experiment: Compound (0.4 mmol/Kg) was evaluated for its ability to inhibit B16BL6 pulmonary metastasis in mice. The number of lung metastases of treated (T) and nontreated or control (C) is expressed as ratio, T/C.
Assay type: functional

CC(CCC(=O)O)(C(=O)O)N1Cc2ccccc2C1=O (configuration not stated)
T/C: 0.25

C[C@@](CCC(=O)O)(C(=O)O)N1Cc2ccccc2C1=O
T/C: 0.7

O=C(O)CCC(C(=O)O)N1Cc2ccc(O)cc2C1=O (configuration not stated)
T/C: 0.9

O=C(O)CCC(C(=O)O)N1Cc2ccccc2C1=O (configuration not stated)
T/C: 0.2

O=C(O)CCC(C(=O)O)N1Cc2cccc(O)c2C1=O (configuration not stated)
T/C: 0.95

C[C@](CCC(=O)O)(C(=O)O)N1Cc2ccccc2C1=O
T/C: 0.15

O=C1CCC(N2C(=O)c3ccccc3C2=O)C(=O)N1 (configuration not stated) [THALIDOMIDE]
T/C: 0.9
